Our source for the Ki values is BindingDB's records for doi:10.1042/BJ20021535 (University of Dundee, 2003).

A word on the Ki: it is the dissociation constant of the complex between target and ligand, obtained from inhibition or displacement. Low values mean higher affinity, high ones lower affinity.

Test [1] concerns the target Casein kinase I isoform delta (Rattus norvegicus, UniProt Q06486).
Test [2] addresses Dual specificity tyrosine-phosphorylation-regulated kinase 1A (Rattus norvegicus, UniProt Q63470).
In test [3] the target is Cyclin-dependent kinase 2 (Homo sapiens, UniProt P24941).
For test [4], the target named is Tyrosine-protein kinase Lck (Homo sapiens, UniProt P06239).
Tyrosine-protein kinase Lck, sequence (P06239 whole entry): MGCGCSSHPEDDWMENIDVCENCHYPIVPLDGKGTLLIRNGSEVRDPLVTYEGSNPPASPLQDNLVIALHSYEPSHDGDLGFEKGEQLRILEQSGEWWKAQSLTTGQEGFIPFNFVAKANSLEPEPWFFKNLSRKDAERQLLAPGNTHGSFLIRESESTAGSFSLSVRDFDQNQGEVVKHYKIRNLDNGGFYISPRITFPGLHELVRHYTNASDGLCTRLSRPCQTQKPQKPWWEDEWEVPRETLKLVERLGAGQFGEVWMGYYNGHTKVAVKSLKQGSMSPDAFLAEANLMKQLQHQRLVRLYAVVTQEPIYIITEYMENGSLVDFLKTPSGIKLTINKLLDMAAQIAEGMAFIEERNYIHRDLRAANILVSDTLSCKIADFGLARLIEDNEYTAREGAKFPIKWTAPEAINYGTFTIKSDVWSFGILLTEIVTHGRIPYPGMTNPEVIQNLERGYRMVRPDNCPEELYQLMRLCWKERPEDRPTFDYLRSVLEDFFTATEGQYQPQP
For test [5], the target named is T1, Serine/threonine-protein kinase Sgk1 (Homo sapiens, UniProt O00141).
T1 sequence (O00141 whole entry): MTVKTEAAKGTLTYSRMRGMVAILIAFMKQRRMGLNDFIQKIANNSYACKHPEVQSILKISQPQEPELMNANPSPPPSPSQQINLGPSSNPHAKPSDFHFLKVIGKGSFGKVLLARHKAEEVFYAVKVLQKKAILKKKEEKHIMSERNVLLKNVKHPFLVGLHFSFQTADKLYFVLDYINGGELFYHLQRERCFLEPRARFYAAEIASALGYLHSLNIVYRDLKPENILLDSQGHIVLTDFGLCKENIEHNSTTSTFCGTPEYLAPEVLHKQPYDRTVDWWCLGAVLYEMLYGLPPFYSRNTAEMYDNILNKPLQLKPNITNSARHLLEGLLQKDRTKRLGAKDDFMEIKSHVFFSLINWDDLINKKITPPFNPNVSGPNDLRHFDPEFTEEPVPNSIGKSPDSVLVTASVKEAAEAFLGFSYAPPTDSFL

The target of test [6] is Ninein (Homo sapiens, UniProt Q8N4C6).
Ninein, sequence (Q8N4C6 whole entry): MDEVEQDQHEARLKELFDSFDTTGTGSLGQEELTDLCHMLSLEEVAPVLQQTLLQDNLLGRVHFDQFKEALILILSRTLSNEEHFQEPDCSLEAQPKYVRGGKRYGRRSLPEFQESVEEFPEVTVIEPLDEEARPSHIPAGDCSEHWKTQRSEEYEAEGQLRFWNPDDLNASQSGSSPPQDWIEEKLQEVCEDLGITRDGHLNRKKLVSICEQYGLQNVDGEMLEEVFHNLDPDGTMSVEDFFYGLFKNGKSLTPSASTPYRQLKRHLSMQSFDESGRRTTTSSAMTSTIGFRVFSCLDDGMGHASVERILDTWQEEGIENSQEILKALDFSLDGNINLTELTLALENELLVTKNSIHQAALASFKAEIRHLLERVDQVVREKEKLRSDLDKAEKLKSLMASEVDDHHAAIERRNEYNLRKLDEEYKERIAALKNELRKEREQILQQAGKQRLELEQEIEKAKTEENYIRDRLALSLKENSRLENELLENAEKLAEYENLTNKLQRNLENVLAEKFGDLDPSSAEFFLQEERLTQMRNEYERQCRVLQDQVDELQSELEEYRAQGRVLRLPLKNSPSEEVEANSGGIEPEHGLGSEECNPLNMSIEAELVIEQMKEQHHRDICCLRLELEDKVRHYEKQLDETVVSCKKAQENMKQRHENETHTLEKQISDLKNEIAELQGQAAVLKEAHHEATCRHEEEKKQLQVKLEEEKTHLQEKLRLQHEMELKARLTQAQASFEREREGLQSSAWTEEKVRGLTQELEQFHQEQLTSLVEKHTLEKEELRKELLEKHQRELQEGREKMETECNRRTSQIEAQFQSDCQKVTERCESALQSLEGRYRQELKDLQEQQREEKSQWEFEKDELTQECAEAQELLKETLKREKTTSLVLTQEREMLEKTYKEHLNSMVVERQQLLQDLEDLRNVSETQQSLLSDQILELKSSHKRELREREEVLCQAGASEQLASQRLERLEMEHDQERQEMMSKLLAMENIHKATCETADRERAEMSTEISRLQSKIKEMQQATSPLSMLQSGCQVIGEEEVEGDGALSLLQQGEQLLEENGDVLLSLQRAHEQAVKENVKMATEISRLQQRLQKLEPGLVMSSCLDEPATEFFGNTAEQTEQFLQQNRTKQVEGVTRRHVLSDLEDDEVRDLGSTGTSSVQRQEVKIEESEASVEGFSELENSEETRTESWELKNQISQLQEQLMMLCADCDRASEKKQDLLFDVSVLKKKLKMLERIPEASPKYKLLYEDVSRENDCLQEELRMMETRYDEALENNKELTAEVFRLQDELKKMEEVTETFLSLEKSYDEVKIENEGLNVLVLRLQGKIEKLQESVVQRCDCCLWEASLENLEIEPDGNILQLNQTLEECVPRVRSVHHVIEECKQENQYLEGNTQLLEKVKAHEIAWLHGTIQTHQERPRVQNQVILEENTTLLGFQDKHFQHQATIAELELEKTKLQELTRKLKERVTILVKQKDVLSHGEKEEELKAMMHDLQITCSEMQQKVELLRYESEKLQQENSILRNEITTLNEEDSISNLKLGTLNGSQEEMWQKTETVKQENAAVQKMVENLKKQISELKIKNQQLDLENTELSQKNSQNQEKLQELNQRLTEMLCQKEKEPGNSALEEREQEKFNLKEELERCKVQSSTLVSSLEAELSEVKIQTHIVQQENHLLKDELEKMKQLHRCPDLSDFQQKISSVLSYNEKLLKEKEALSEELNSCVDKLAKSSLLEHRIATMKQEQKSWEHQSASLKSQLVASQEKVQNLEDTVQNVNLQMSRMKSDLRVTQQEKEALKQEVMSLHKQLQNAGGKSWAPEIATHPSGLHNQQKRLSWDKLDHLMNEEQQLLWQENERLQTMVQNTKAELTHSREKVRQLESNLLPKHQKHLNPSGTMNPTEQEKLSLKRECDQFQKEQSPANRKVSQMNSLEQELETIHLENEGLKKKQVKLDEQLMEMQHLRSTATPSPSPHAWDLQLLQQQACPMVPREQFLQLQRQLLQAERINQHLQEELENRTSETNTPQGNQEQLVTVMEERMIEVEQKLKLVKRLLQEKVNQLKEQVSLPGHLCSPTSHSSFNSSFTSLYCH

Casein kinase I isoform delta, sequence (Q06486 whole entry, canonical isoform): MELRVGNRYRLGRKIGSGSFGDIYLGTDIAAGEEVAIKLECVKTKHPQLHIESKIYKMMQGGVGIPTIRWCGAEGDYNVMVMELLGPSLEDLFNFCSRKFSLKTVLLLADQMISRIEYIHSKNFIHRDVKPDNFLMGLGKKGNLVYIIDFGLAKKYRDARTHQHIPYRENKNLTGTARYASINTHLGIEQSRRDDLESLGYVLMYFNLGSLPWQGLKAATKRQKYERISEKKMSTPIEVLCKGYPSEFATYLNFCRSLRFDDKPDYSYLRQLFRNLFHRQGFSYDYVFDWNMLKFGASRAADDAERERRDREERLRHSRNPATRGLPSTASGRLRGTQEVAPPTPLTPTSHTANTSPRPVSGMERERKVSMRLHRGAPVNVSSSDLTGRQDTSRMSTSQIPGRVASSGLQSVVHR

The molecule `Nc1ncnc2c1cnn2-c1ccccc1` [1-Phenyl-1H-pyrazolo[3,4-d]pyrimidin-4-ylamine] yielded a Ki in test [1] of 9900 nM. The same measure, in the same setting: in the case of `CC[C@H](CO)Nc1nc(NCc2ccccc2)c2ncn(C(C)C)c2n1` [2,6,9-Trisubstituted purine deriv. 28] it was > 10000 nM. Regarding `CC(C)[C@H](CO)Nc1nc(Nc2cccc(Cl)c2)c2ncn(C(C)C)c2n1` [(2R)-2-({6-[(3-chlorophenyl)amino]-9-(propan-2-yl)-9H-purin-2-yl}amino)-3-methylbutan-1-ol], the results for the Ki in test [2] and in test [3] were 300 nM and 100 nM, respectively. For `O=Nc1c(C2C(=O)Nc3ccccc32)[nH]c2ccccc12` (centres undefined) [Indirubin-3 -monoxime], the Ki was 300 nM in test [4], 380 nM in test [5], 190 nM in test [6] and 590 nM in test [3]. With `O=C1Cc2c([nH]c3ccc([N+](=O)[O-])cc23)-c2ccccc2N1` [NSC 705701], the Ki in test [6] is 110 nM.
